Results reported in patent publication US11566024B2 (CHANGZHOU QIANHONG BIOPHARMA CO., LTD, priority 2018, dated 2023).
Values belong to the molecule of their own block, whether it stands above or below them.

Columns and labels:
Hygroscopicity (DVS) = type: physicochemical; settings: for hygroscopicity (in words): DVS experiments on the Active Pharmaceutical Ingredients; for hygroscopicity class (in words) / hygroscopic weight gain: at 80% humidity; for hygroscopic weight gain: tartrate
[1] = Equilibrium solubility of crystal forms under simulated in vivo conditions; type: physicochemical; settings: simulated in vivo conditions (pH=2.0, 4.6, 6.8)
[2] = Conversion experiments between the crystal forms; type: physicochemical; settings: conversion between Crystal Form A and Form B
physchem = settings: for solubility: 25 °C, thermodynamic from solid
Source text: Perform scale-up experiments on the above six salts to determine solubilities of various salts in different pH buffers and deionized water, and compare with the free base.

[3] = Preliminary stability tests (high temperature, high humidity, illumination); type: physicochemical; settings: high humidity, and illumination, versus free base and other salt forms
Source text: However, unlike phosphates and the like, the above increase in solubility is not accompanied by a significant increase in hygroscopicity. […] The above and other advantages will be favorable for overcoming various challenges faced by the development of pharmaceutical products containing selective CDK 9 kinase inhibitors of Formula I.

hygroscopicity (in words) (Hygroscopicity (DVS)): very low hygroscopicity
SMILES: CNc1nc(C)c(-c2nc(Nc3cccc(S(N)(=O)=O)c3)ncc2F)s1 [LS007, 3-(5-fluoro-4-(4-methyl-2-(methylamino)thiazol-5-yl)pyrimidin-2-ylamino)-benzenesulfonamide]

hygroscopicity (in words) (Hygroscopicity (DVS)): highest hygroscopicity
water absorbed (Hygroscopicity (DVS); DVS, 60% RH): 11.71%
SMILES: CNc1nc(C)c(-c2nc(Nc3cccc(S(N)(=O)=O)c3)ncc2F)s1.O=P(O)(O)O [Phosphate]

More lines, now with the values behind:

SMILES: CNc1nc(C)c(-c2nc(Nc3cccc(S(N)(=O)=O)c3)ncc2F)s1.O=C(O)C(O)C(O)C(=O)O [Form A, 3-(5-fluoro-4-(4-methyl-2-(methylamino)thiazol-5-yl)pyrimidin-2-ylamino)-benzenesulfonamide tartrate]
hygroscopicity class (in words) (Hygroscopicity (DVS)): non-hygroscopic
hygroscopic weight gain (Hygroscopicity (DVS)): 0.22%
equilibrium solubility (in words) [1]: greater than that of Form B
crystal form stability (in words) [2]: more stable crystal form

SMILES: CNc1nc(C)c(-c2nc(Nc3cccc(S(N)(=O)=O)c3)ncc2F)s1.O=C(O)C(O)C(O)C(=O)O [Tartrate, 3-(5-fluoro-4-(4-methyl-2-(methylamino)thiazol-5-yl)pyrimidin-2-ylamino)-benzenesulfonamide tartrate]
solubility (physchem; pH 2, aqueous buffer): 4300 µg/mL
solubility (physchem; pH 4.5, aqueous buffer): 7.5 µg/mL
solubility (physchem; pH 6.8, aqueous buffer): 3.7 µg/mL
solubility (physchem; water): 418 µg/mL
solubility compared to the raw materials (in words) (physchem; pH 2.0 buffer and deionized water, HPLC): significantly increased
hygroscopicity (in words) (Hygroscopicity (DVS)): lowest hygroscopicity
stability (in words) [3]: better stability

SMILES: CNc1nc(C)c(-c2nc(Nc3cccc(S(N)(=O)=O)c3)ncc2F)s1.O=C(O)C(O)C(O)C(=O)O [Form B, 3-(5-fluoro-4-(4-methyl-2-(methylamino)thiazol-5-yl)pyrimidin-2-ylamino)-benzenesulfonamide tartrate]
hygroscopicity class (in words) (Hygroscopicity (DVS)): non-hygroscopic
hygroscopic weight gain (Hygroscopicity (DVS)): 0.11%
